Values joined by “and” are separate entries in the source; they are usually repeats but may differ in a detail not shown here. Equal entries are not always repeated.
How the values were obtained:
CD1 mice = assay: Tail-flick antinociception in CD1 mice; type: in vivo, mouse; settings: Fig 9b, sc; for Tail flick latency / Tail flick (%MPE): individual animals; for Tail flick latency in secs, mean: mean of 8 animals
rKOR = molecular target: T1, rKOR (Rattus norvegicus, UniProt P34975); assay: CAMYEL BRET cAMP agonist assay at rKOR; type: cell-based; settings: individual replicates, Supplementary Figure 8B source data
T1 construct: expressed in transfected cells

mKOR = molecular target: T2, mKOR (Mus musculus, UniProt P33534); assay: [125I]BNtxA radioligand competition binding, mouse KOR; settings: mean ± SEM, n = 3; [125I]BNtxA; read-out: Ki ± SEM mKOR
T2 construct: expressed in transfected cells; membranes

mMOR [1] = molecular target: T3, mMOR (Mus musculus, UniProt P42866); assay: CAMYEL BRET cAMP agonist assay at mMOR; type: cell-based; settings: mMOR; for cAMP %: single replicates, source data Fig 6b, listed as C11-F-7OH (22)
T3 construct: signal peptide (heterologous, not specified) (N); expressed in transfected cells; pcDNA3.1(+) construct made in house

mDOR [2] = molecular target: T4, mDOR (Mus musculus, UniProt P32300); assay: CAMYEL BRET cAMP agonist assay at mDOR; type: cell-based; settings: for Agonist activity of 7OH analogs at mDOR: single replicate values, Supplementary Figure 7B
T4 construct: expressed in transfected cells

mDOR [3] = molecular target: T4, mDOR; assay: [125I]BNtxA radioligand competition binding, mouse DOR; settings: mean ± SEM, n = 3; [125I]BNtxA; read-out: Ki ± SEM mDOR
mMOR [4] = molecular target: T3, mMOR; assay: [125I]BNtxA radioligand competition binding, mouse MOR; settings: mean ± SEM, n = 3; [125I]BNtxA; read-out: Ki ± SEM mMOR
mMOR [5] = molecular target: T3, mMOR; assay: CAMYEL BRET antagonism assay at mMOR (inhibition of DAMGO); type: cell-based; settings: for Antagonist activity at mMOR, raw signal (single replicate values): source data of Fig 8a and Table 5, listed as C11-F-7OH (22);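 on Antagonist activity at mMOR, raw signal (single replicate values): BRET signal rises as cAMP falls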
hMOR = molecular target: T5, hMOR (Homo sapiens, UniProt P35372); assay: cell-based
T5 construct: expressed in transfected cells; plasmid a gift from Dr. Nevin Lambert

CC[C@@H]1CN2CC[C@@]3(O)C(=Nc4cc(F)cc(OC)c43)[C@@H]2C[C@@H]1/C(=C\OC)C(=O)OC [11-F-7OH (22), 11-Fluoro-7-hydroxymitragynine]
Tail flick latency (CD1 mice; 5 mg/kg): 3.5 s and 4.0 s and 3.3 s and 3.7 s and 4.3 s and 4.6 s and 5.0 s and 4.4 s | Tail flick latency in secs, mean (CD1 mice; 5 mg/kg): 4.1 s | Tail flick (%MPE) (CD1 mice; 10 mg/kg): 24.1 %MPE and 13.7 %MPE and 25.9 %MPE and 28.9 %MPE and 26.9 %MPE and 39.0 %MPE and 32.1 %MPE and 27.3 %MPE | Tail flick latency (CD1 mice; 10 mg/kg): 4.0 secs (2×) and 3.7 secs and 4.6 secs and 4.3 secs and 5.0 secs and 4.5 secs and 4.4 secs | Tail flick latency in secs, mean (CD1 mice; 10 mg/kg): 4.3 s | Tail flick (%MPE) (CD1 mice; 25 mg/kg): 29.1 %MPE and 27.4 %MPE and 42.0 %MPE and 38.2 %MPE and 23.1 %MPE and 36.6 %MPE and 37.0 %MPE and 44.2 %MPE | Tail flick latency (CD1 mice; 25 mg/kg): 4.4 secs and 4.7 secs and 5.3 secs (2×) and 4.0 secs and 4.8 secs and 4.9 secs and 5.7 secs | Tail flick latency in secs, mean (CD1 mice; 25 mg/kg): 4.9 s | Agonist activity of 7OH analogs at rKOR (rKOR; Log [drug](M) -5): 22.082 and 29.1799 and 24.9804 and 9.107 and 13.0188 and 13.182 and 6.083 and 2.973 and 4.112 | Agonist activity of 7OH analogs at rKOR (rKOR; Log [drug](M) -6): 13.2987 and 25.9578 and 3.4416 and 5.534 and 11.6761 and -0.5648 and 7.283 and 13.1071 and 4.997 | Agonist activity of 7OH analogs at rKOR (rKOR; Log [drug](M) -7): 18.031 and 31.9599 and 33.0367 and -2.212 and 3.5973 and -1.385 and 1.635 and 2.31 and 9.2799 | Agonist activity of 7OH analogs at rKOR (rKOR; Log [drug](M) -8): 5.787 and -5.909 and 29.0355 and 11.9094 and 9.551 and -12.1962 and 10.3961 and -3.525 and 1.154 | Agonist activity of 7OH analogs at rKOR (rKOR; Log [drug](M) -9): 2.374 and 3.557 and 1.503 and 17.2927 and 4.288 and -5.051 and 9.998 and -1.969 and -2.384 | Agonist activity of 7OH analogs at rKOR (rKOR; Log [drug](M) -10): 1.539 and 1.5713 and -3.1102 and 5.6014 and 10.9469 and 10.7639 and 2.853 and 4.901 and 1.67 | Agonist activity of 7OH analogs at rKOR (rKOR; Log [drug](M) -11): -1.844 and 21.6085 and 6.867 and 10.1299 and 11.9047 and -4.025 and 6.309 and -3.657 and -2.652 | Agonist activity of 7OH analogs at rKOR (rKOR; Log [drug](M) -13): 18.2754 and 7.8104 and 16.2642 and 12.0322 and 1.984 and 9.1095 and -1.886 and 4.583 and -1.369 | Ki (mKOR): 21 ± 3.2 nM | cAMP % (mMOR [1]; Log[drug] (M) -5): 18.6612% and 13.4113% and 8.551% and 30.7876% and 22.9326% and 28.8572% and 20.3955% and 21.355% and 24.4984% | cAMP % (mMOR [1]; Log[drug] (M) -6): 25.4304% and 7.798% and 14.3775% and 23.1589% and 22.9335% and 14.5614% and 26.2834% and 10.6621% and 13.744% | cAMP % (mMOR [1]; Log[drug] (M) -7): 4.791% and 10.9715% and 7.661% and 21.2718% and 20.4101% and 18.8827% and 13.0494% and 8.164% and 16.1975% | cAMP % (mMOR [1]; Log[drug] (M) -8): 1.666% and 6.134% and 7.138% and 7.653% and 6.95% and 8.768% and 3.363% and -0.1101% and 16.7433% | cAMP % (mMOR [1]; Log[drug] (M) -9): 0.8145% and -7.096% and 6.2815% and 3.889% and -6.162% and 2.273% and -4.16% and 0.06827% and 4.092% | cAMP % (mMOR [1]; Log[drug] (M) -10): 13.6379% and 11.7751% and 16.0473% and 16.5566% and -2.169% and 7.345% and 0.7238% and 2.035% and 11.7782% | cAMP % (mMOR [1]; Log[drug] (M) -11): 20.0905% and 12.8035% and 2.268% and 1.246% and -1.253% and 18.3526% and 6.666% and -0.8467% and -5.17% | cAMP % (mMOR [1]; Log[drug] (M) -13, cAMP inhibition as % of DAMGO): 13.7634% and 17.6649% and 9.384% and 11.7249% and -6.349% and 6.202% and -0.02358% and 4.732% and 0.04545% | Emax (mMOR [1]; maximal inhibitory effect on cAMP levels relative to DAMGO): 21% | EC50 (mMOR [1]; n = 3, read-out: EC50): 97 nM | Agonist activity of 7OH analogs at mDOR (mDOR [2]; Log[drug] (M) -5): 47.1654 and 47.1068 and 50.635 and 37.9412 and 42.0474 and 46.3733 and 28.2147 and 32.1025 and 39.5821 | Agonist activity of 7OH analogs at mDOR (mDOR [2]; Log[drug] (M) -6): 47.099 and 41.9872 and 38.3786 and 51.107 and 48.5979 and 35.3577 and 31.3142 and 12.8186 and 22.449 | Agonist activity of 7OH analogs at mDOR (mDOR [2]; Log[drug] (M) -7): 30.1688 and 32.9372 and 28.2956 and 32.0377 and 31.8373 and 22.4143 and 6.1677 and 13.5479 and 12.0733 | Agonist activity of 7OH analogs at mDOR (mDOR [2]; Log[drug] (M) -8): 13.6765 and -5.445 and -5.108 and 13.4452 and 4.719 and 1.33 and -3.9215 and 5.792 | Agonist activity of 7OH analogs at mDOR (mDOR [2]; Log[drug] (M) -9): -4.727 and 10.4426 and 11.2028 and 10.7963 and -1.115 and -6.036 and 3.188 and 1.136 and -3.325 | Agonist activity of 7OH analogs at mDOR (mDOR [2]; Log[drug] (M) -10): -4.225 and 3.531 and 0.6939 and 1.589 and -3.887 and 2.298 and 4.3674 and 7.155 and 10.722 | Agonist activity of 7OH analogs at mDOR (mDOR [2]; Log[drug] (M) -11): 12.0117 and 1.607 and 13.3008 and 5.9086 and 13.4698 and 3.259 and 9.679 and 6.216 and 9.4253 | Agonist activity of 7OH analogs at mDOR (mDOR [2]; Log[drug] (M) -13): -0.8332 and 15.6965 and -5.824 and 1.284 and 2.644 and 6.574 and -5.56 and 1.8034 and 3.757 | EC50 (mDOR [2]; mDOR cAMP BRET, read-out: EC50): 102 nM | Emax (mDOR [2]; read-out: Emax): 41% | Ki (mDOR [3]): 35.8 ± 2 nM | Ki (mMOR [4]): 13.7 ± 1 nM | IC50 (mMOR [5]): 260 nM | Antagonist activity at mMOR, raw signal (single replicate values) (mMOR [5]; Log[drug] (M) -5): 0.03322 and 0.03306 and 0.04505 and 0.03409 and 0.04171 and 0.03584 and 0.0591 and 0.05619 and 0.05325 | Antagonist activity at mMOR, raw signal (single replicate values) (mMOR [5]; Log[drug] (M) -6): 0.06086 and 0.0551 and 0.06302 and 0.07276 and 0.06512 and 0.0766 and 0.06642 and 0.06116 and 0.08827 | Antagonist activity at mMOR, raw signal (single replicate values) (mMOR [5]; Log[drug] (M) -7): 0.1571 and 0.1681 and 0.1534 and 0.1529 and 0.1704 and 0.1581 and 0.1507 and 0.1426 and 0.1477 | Antagonist activity at mMOR, raw signal (single replicate values) (mMOR [5]; Log[drug] (M) -8): 0.2123 and 0.2016 and 0.2091 and 0.1893 and 0.2024 and 0.2047 and 0.1631 and 0.1656 and 0.156 | Antagonist activity at mMOR, raw signal (single replicate values) (mMOR [5]; Log[drug] (M) -9): 0.2046 and 0.2165 and 0.2136 and 0.191 and 0.2101 and 0.1873 and 0.1659 and 0.1752 and 0.1707 | Antagonist activity at mMOR, raw signal (single replicate values) (mMOR [5]; Log[drug] (M) -10): 0.2086 and 0.2076 and 0.2154 and 0.2091 and 0.201 and 0.211 and 0.1814 and 0.1819 and 0.178 | Antagonist activity at mMOR, raw signal (single replicate values) (mMOR [5]; Log[drug] (M) -11): 0.2091 and 0.1929 and 0.2264 and 0.2001 and 0.2059 and 0.2094 and 0.1761 and 0.1779 and 0.1909 | IC50 (hMOR): 590 nM

— publication PMC8219695 (Nature Communications, 2021)
